Laboratory results from ChEMBL document CHEMBL5725362, “Long chain base sphingosine kinase inhibitors” (2017).
pKi: −log10 of the molar value.

Target: Sphingosine kinase 1 (Homo sapiens, UniProt Q9NYA1)
Experiment: Scintillation Proximity Assay: SphK activity was measured by a scintillation proximity assay as previously described [1], the disclosure of which is incorporated herein. Briefly, recombinant SphK1 or SphK2 were expressed in Sf9 insect cells, crude homogenates were prepared and incubated in 96 well FlashPlates (Perkin-Elmer) in a buffer containing D-erythro-sphingosine and γ-[33P]ATP. The [33P]S1P …

Sphingosine kinase 1, sequence (Q9NYA1 whole entry): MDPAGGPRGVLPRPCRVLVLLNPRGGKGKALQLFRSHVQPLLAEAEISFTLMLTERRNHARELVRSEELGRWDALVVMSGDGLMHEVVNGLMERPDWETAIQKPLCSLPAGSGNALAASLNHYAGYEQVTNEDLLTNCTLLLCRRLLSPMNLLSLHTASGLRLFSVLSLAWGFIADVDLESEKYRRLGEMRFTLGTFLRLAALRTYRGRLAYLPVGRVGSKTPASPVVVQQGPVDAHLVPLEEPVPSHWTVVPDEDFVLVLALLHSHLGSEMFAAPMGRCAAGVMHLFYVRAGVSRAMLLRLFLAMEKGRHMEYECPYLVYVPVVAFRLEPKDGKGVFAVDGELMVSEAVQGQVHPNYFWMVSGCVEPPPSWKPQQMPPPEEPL

pKi | SMILES
> 6.00 | N=C(N)C1(c2nnc(-c3ccc(CCCCCCCOCC4CCCCC4)cc3)o2)CC1
> 6.00 | N=C(N)C1(c2nc(-c3cccc(CCCCCCOCC4CCCCC4)c3)no2)CC1
> 6.00 | N=C(N)C1(c2nc(-c3cccc(CCc4cccc(CCC5CCCCC5)c4)c3)no2)CC1
< 5.00 | CCCCCCCCCCc1ccc(/C=C/C2(C(=N)N)CC2)cc1
> 6.00 | CCCCCCCCCCCCc1cccc(-c2noc(C3(C(=N)N)CC3)n2)c1
> 6.00 | N=C(N)C1(c2nnc(-c3cccc(CCCCCCOCC4CCCCC4)c3)o2)CC1
> 6.00 | CCCCCCCCCCCc1ccc(F)c(-c2nnc(C3(C(=N)N)CC3)o2)c1
> 6.00 | CCCCCCCCCCCc1cc(-c2nnc(C3(C(=N)N)CC3)o2)ccc1C
> 6.00 | CCCCCCCCCCCc1cc(-c2noc(C3(C(=N)N)CC3)n2)ccc1C
> 6.00 | CCCCCCCCCCCc1ccc(C)c(-c2nnc(C3(C(=N)N)CC3)o2)c1
> 6.00 | CCCCCCCCCCCc1cccc(-c2nnc(C3(C(=N)N)CC3)o2)c1
< 5.00 | N=C(N)N1CCC[C@H]1c1nc(-c2ccc(CS(=O)(=O)c3ccccc3)cc2)no1
> 6.00 | CCCCCCCCCCCc1cc(-c2nnc(C3(C(=N)N)CC3)o2)ccc1F
> 6.00 | CCCCCCCCCCCc1cccc(-c2nc(C3(C(=N)N)CC3)n[nH]2)c1
